Values after ≈ are worked out from the molar mass of the structure shown. “Also recorded” adds a separate entry of the source.
Tests used:
Format in all cases: cell-based
E. coli JMI 21711R [1] = test: change in bacterial density in vitro over 24 hours (growth rate)
Description: Moreover, note the impact of ascorbic acid on the time-course of levofloxacin antimicrobial activity.

E. coli JMI 21711R [2] = test: levofloxacin MIC; settings: Escherichia coli, JMI21711R
S. aureus ATCC 29213 [3] = test: 10-day hollow-fiber in vitro infection model
Description: The treatment arms and associated control arms differed only in sodium chloride concentration (0 and 8%) within the growth media. The initial bacterial inoculum in the model was 1×10^8 CFU/mL was selected to approximate that observed in high-density infections, such as pneumonia. Moreover, the 10-day study duration was selected to approximate that typical for pneumonia.
Note that in the media in which the challenge isolate grew slowly (sodium chloride 8%), the time-until a reduction of bacterial density to 1×10^2 CFU/mL was 10 days. On the other hand, in the media in which the challenge isolate grew rapidly (sodium chloride 0%), the time-until reduction of bacterial density to 1×10^2 CFU/mL was 3 days.

S. aureus ATCC 29213 [4] = test: levofloxacin MIC; settings: Staphylococcus aureus, ATCC29213
E. coli JMI 21711R [5] = settings: norepinephrine 500 μM, no levofloxacin
Protocol: Each treatment arm and its associated control arm differed only in norepinephrine concentration (0, 500 μM) within the growth media.

S. aureus ATCC 29213 [6] = test: 24-hour one-compartment dynamic in vitro infection model; settings: 10% sodium chloride, no levofloxacin
Description: Not previously recognized is the potential to modulate the intrinsic bacterial replication rate in combination with an antimicrobial agent as a means to increase the rate and extent of bactericidal activity. […] Each treatment arm and associated control arm differed only in sodium chloride concentration (0, 8, and 10%) within the growth media. […] Note also that bacterial killing occurred only during bacterial replication.

S. aureus ATCC 29213 [7] = test: change in bacterial density in vitro over 24 hours (growth rate in Mueller-Hinton II broth); settings: S. aureus ATCC 29213, in vitro over 24 hours, starting inoculum 1×10^6 CFU/mL, increasing sodium chloride concentration

O=C1O[C@H]([C@@H](O)CO)C(O)=C1O [ascorbic acid, Ascorbic acid]
bacterial replication rate relative to no treatment control (E. coli JMI 21711R [1]; ascorbic acid without levofloxacin): increases the bacterial replication rate relative to no treatment control

C[C@H]1COc2c(N3CCN(C)CC3)c(F)cc3c(=O)c(C(=O)O)cn1c23 [levofloxacin]
MIC (E. coli JMI 21711R [2]): 8 mg/L (≈ 22.1 µM) | reduction in time-until a reduction of bacterial density to 1×10^2 CFU/mL (S. aureus ATCC 29213 [3]; fast (sodium chloride 0%) versus slow (sodium chloride 8%) growing media): 70% | time-until reduction of bacterial density to 1×10^2 CFU/mL (S. aureus ATCC 29213 [3]; sodium chloride 0% (rapid growth), initial inoculum 1×10^8 CFU/mL, levofloxacin AUC:MIC ratio 520): 3 days | time-until a reduction of bacterial density to 1×10^2 CFU/mL (S. aureus ATCC 29213 [3]; sodium chloride 8% (slow growth), initial inoculum 1×10^8 CFU/mL, levofloxacin AUC:MIC ratio 520): 10 days | MIC (S. aureus ATCC 29213 [4]): 0.125 mg/L (≈ 0.346 µM)

NCC(O)c1ccc(O)c(O)c1 (stereo not shown) [norepinephrine, Norepinephrine]
bacterial replication rate (change in bacterial density) (E. coli JMI 21711R [1]; starting inoculum 1×10^6 CFU/mL, increasing norepinephrine concentration): as norepinephrine concentration increases so too does the bacterial replication rate; also recorded: sped up | growth of control arm relative to no-treatment control arm (E. coli JMI 21711R [5]): grew faster

[Cl-].[Na+] [sodium chloride]
growth in control arm (S. aureus ATCC 29213 [6]): delayed for four hours | bacterial replication rate (change in bacterial density) (S. aureus ATCC 29213 [7]): as sodium chloride concentration increases, the bacterial replication rate decreases; also recorded: slowed

Reference: patent publication US10751303B2, “Method for shortening anti-infective therapy duration in subjects with infection” (INSTITUTE FOR CLINICAL PHARMACODYNAMICS, INC., priority 2015, dated 2020)
